Series [1] in a line: Solubility of paclitaxel in various solvents (HPLC). The format is physicochemical. The method, then:
For each solvent, about 2 g of the solvent was weighed into a clear glass vial.
Each vial was mixed with a stir bar on a magnetic stirrer for 2 hours at room temperature.
Each vial was then checked every 1-2 hours to see if the solution became clear.

Another series has as its system skin inflammation models. The following applies: topical treatment; nonclinical evaluations; cited from earlier work.

`CC(=O)O[C@H]1C(=O)[C@@]2(C)[C@H]([C@H](OC(=O)c3ccccc3)[C@]3(O)C[C@H](OC(=O)[C@H](O)[C@@H](NC(=O)c4ccccc4)c4ccccc4)C(C)=C1C3(C)C)[C@]1(OC(C)=O)CO[C@@H]1C[C@@H]2O` [Paclitaxel, paclitaxel]: the “Paclitaxel Solubility at RT” value is 17.02% w/w in series [1] (in Benzyl Alcohol, NF); 33.10% w/w in series [1] (in Diethylene Glycol Monoethyl Ether, NF (TRANSCUTOL P)); 3.51% w/w in series [1] (in Diisopropyl Adipate (CERAPHYL 230)); 38.22% w/w in series [1] (in Dimethyl Isosorbide); 4.07% w/w in series [1] (in Hexylene Glycol); 0.048% w/w in series [1] (in Isopropyl Myristate, NF). For the same molecule, the “Paclitaxel Solubility at RT” value in series [1] (in Medium Chain Triglycerides, NF) is on record as 0.32% w/w; in series [1] (in Mineral Oil, USP (heavy)), 0.3 ppm; in series [1] (in Polyethylene Glycol 400, NF) it was 22.30% w/w; in series [1] (in Propylene Carbonate) it was 4.74% w/w; in series [1] (in Propylene Glycol, USP), 0.88% w/w; in series [1] (in Purified Water, USP), less than 0.05 ppm. For the same molecule, the “Paclitaxel Solubility at RT” value in series [1] (in Purified Water, USP, listed as paclitaxel) was “less than 0.05 ppm”; in series [1] (in Super Refined Oleic Acid, NF) it was 0.041% w/w; in series [1] (in Super Refined Oleyl Alcohol, NF), 0.38% w/w. The “Effect in skin inflammation models” value in the series with skin inflammation models is “reduced inflammation, swelling, and erythema”.

(Values after US10449162B2, “Delivery of drug nanoparticles and methods of use thereof” (DFB Soria, LLC, priority 2015, dated 2019).)
